Earlier results on one compound are cited in patent US20190175610A1 (priority 2017, published 2019).

The conditions of the data set: athletes, during exercise after oral supplementation.

Regarding `C[N+](C)(C)C[C@H](O)CC(=O)[O-]` [L-carnitine, γ-trimethylamino-β-hydroxybutyrate], the “benefit on fatty acid metabolism” value is listed as “no benefit”.
